Tests used:
Type in all cases: in vivo
[1] = system: Alopecurus myosuroides (ALOMY); assay: Pre-emergence herbicidal glasshouse test on Alopecurus myosuroides; settings: pre-emergence; 1000 g/h; evaluated after 13 days
Outline: (§1)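 Scoring scale: 5=80-100%, 4=60-79%, 3=40-59%, 2=20-39%, 1=0-19% damage, assessed on day 13. Compound sprayed at 1000 g/h on soil-grown plants (day 1 pre-, day 8 post-emergence) kept at 24/16 °C, 14 h light.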

Setaria faberi (SETFA) [2] = assay: Pre-emergence herbicidal glasshouse test on Setaria faberi; settings: pre-emergence; 1000 g/h; evaluated after 13 days
Outline: as §1

[3] = system: Echinochloa crus-galli (ECHCG); assay: Pre-emergence herbicidal glasshouse test on Echinochloa crus-galli; settings: pre-emergence; 1000 g/h; evaluated after 13 days
Outline: as §1

Solanum nigrum (SOLNI) [4] = assay: Pre-emergence herbicidal glasshouse test on Solanum nigrum; settings: pre-emergence; 1000 g/h; evaluated after 13 days
Outline: as §1

[5] = system: Amaranthus retoflexus (AMARE); assay: Pre-emergence herbicidal glasshouse test on Amaranthus retoflexus; settings: pre-emergence; 1000 g/h; evaluated after 13 days
Outline: as §1

[6] = system: Ipomoea hederacea (IPOHE); assay: Pre-emergence herbicidal glasshouse test on Ipomoea hederacea; settings: pre-emergence; 1000 g/h; evaluated after 13 days
Outline: as §1

[7] = system: Alopecurus myosuroides (ALOMY); assay: Post-emergence herbicidal glasshouse test on Alopecurus myosuroides; settings: post-emergence; 1000 g/h; evaluated after 13 days
Outline: as §1

Setaria faberi (SETFA) [8] = assay: Post-emergence herbicidal glasshouse test on Setaria faberi; settings: post-emergence; 1000 g/h; evaluated after 13 days
Outline: as §1

[9] = system: Echinochloa crus-galli (ECHCG); assay: Post-emergence herbicidal glasshouse test on Echinochloa crus-galli; settings: post-emergence; 1000 g/h; evaluated after 13 days
Outline: as §1

Solanum nigrum (SOLNI) [10] = assay: Post-emergence herbicidal glasshouse test on Solanum nigrum; settings: post-emergence; 1000 g/h; evaluated after 13 days
Outline: as §1

[11] = system: Amaranthus retoflexus (AMARE); assay: Post-emergence herbicidal glasshouse test on Amaranthus retoflexus; settings: post-emergence; 1000 g/h; evaluated after 13 days
Outline: as §1

[12] = system: Ipomoea hederacea (IPOHE); assay: Post-emergence herbicidal glasshouse test on Ipomoea hederacea; settings: post-emergence; 1000 g/h; evaluated after 13 days
Outline: as §1

SMILES	PRE Application ALOMY herbicidal damage (five point scale) [1]	PRE Application SETFA herbicidal damage (five point scale) (Setaria faberi (SETFA) [2])	PRE Application ECHCG herbicidal damage (five point scale) [3]	PRE Application SOLNI herbicidal damage (five point scale) (Solanum nigrum (SOLNI) [4])	PRE Application AMARE herbicidal damage (five point scale) [5]	PRE Application IPOHE herbicidal damage (five point scale) [6]	POST Application ALOMY herbicidal damage (five point scale) [7]	POST Application SETFA herbicidal damage (five point scale) (Setaria faberi (SETFA) [8])	POST Application ECHCG herbicidal damage (five point scale) [9]	POST Application SOLNI herbicidal damage (five point scale) (Solanum nigrum (SOLNI) [10])	POST Application AMARE herbicidal damage (five point scale) [11]	POST Application IPOHE herbicidal damage (five point scale) [12]
Cn1ncc(-c2ccccc2S(=O)(=O)C(F)(F)F)c(O)c1=O [Compound 1.056]	5 (5=80-100% damage)	1 (1=0-19% damage)	5 (5=80-100% damage)	4 (4=60-79% damage)	5 (5=80-100% damage)	1 (1=0-19% damage)	5 (5=80-100% damage)	5 (5=80-100% damage)	5 (5=80-100% damage)	5 (5=80-100% damage)	5 (5=80-100% damage)	5 (5=80-100% damage)
Cn1ncc(-c2ccc(F)cc2[S+](C)[O-])c(O)c1=O (stereo not drawn) [Compound 1.057]	5 (5=80-100% damage)	5 (5=80-100% damage)	5 (5=80-100% damage)	5 (5=80-100% damage)	5 (5=80-100% damage)	2 (2=20-39% damage)	5 (5=80-100% damage)	5 (5=80-100% damage)	5 (5=80-100% damage)	5 (5=80-100% damage)	5 (5=80-100% damage)	5 (5=80-100% damage)
Cn1ncc(-c2ccc(F)cc2S(C)(=O)=O)c(O)c1=O [Compound 1.058]	5 (5=80-100% damage)	5 (5=80-100% damage)	5 (5=80-100% damage)	5 (5=80-100% damage)	5 (5=80-100% damage)	5 (5=80-100% damage)	5 (5=80-100% damage)	5 (5=80-100% damage)	5 (5=80-100% damage)	5 (5=80-100% damage)	5 (5=80-100% damage)	5 (5=80-100% damage)
Cn1ncc(-c2ccc(Cl)cc2[S+](C)[O-])c(O)c1=O (stereo not drawn) [Compound 1.059]	5 (5=80-100% damage)	5 (5=80-100% damage)	5 (5=80-100% damage)	5 (5=80-100% damage)	5 (5=80-100% damage)	5 (5=80-100% damage)	5 (5=80-100% damage)	5 (5=80-100% damage)	5 (5=80-100% damage)	5 (5=80-100% damage)	5 (5=80-100% damage)	5 (5=80-100% damage)
Cn1ncc(-c2ccc(Cl)cc2S(C)(=O)=O)c(O)c1=O [Compound 1.061]	5 (5=80-100% damage)	5 (5=80-100% damage)	5 (5=80-100% damage)	5 (5=80-100% damage)	5 (5=80-100% damage)	4 (4=60-79% damage)	5 (5=80-100% damage)	5 (5=80-100% damage)	5 (5=80-100% damage)	5 (5=80-100% damage)	5 (5=80-100% damage)	5 (5=80-100% damage)
COc1c(Cl)ccc(-c2cnn(C)c(=O)c2O)c1F [Compound 1.063]	1 (1=0-19% damage)	1 (1=0-19% damage)	1 (1=0-19% damage)	1 (1=0-19% damage)	1 (1=0-19% damage)	1 (1=0-19% damage)	1 (1=0-19% damage)	1 (1=0-19% damage)	1 (1=0-19% damage)	2 (2=20-39% damage)	3 (3=40-59% damage)	3 (3=40-59% damage)
CN(C)c1c(Cl)ccc(-c2cnn(C)c(=O)c2O)c1F [Compound 1.064]	1 (1=0-19% damage)	1 (1=0-19% damage)	1 (1=0-19% damage)	1 (1=0-19% damage)	1 (1=0-19% damage)	1 (1=0-19% damage)	1 (1=0-19% damage)	1 (1=0-19% damage)	1 (1=0-19% damage)	5 (5=80-100% damage)	5 (5=80-100% damage)	4 (4=60-79% damage)

Source: patent publication US9693556B2, “Herbicidal pyridazinone derivatives” (SYNGENTA LIMITED, priority 2011, dated 2017)
